Laboratory results from US20250230193A1, “CYCLIC COMPOUND HAVING SELECTIVE KRAS INHIBITORY EFFECT ON HRAS AND NRAS” (CHUGAI SEIYAKU KABUSHIKI KAISHA, priority 2022, published 2025).

How the values were obtained:
[1] = molecular target: GDP-bound NRAS wild-type protein (Homo sapiens, UniProt P01111); test: Binding to NRAS by surface plasmon resonance (SPR), Single Cycle Kinetics; details: SPR; for NRAS/KRAS (ratio of KD value with respect to NRAS to KD value with respect to KRAS): GDP-bound NRAS wild-type vs GDP-bound KRAS wild-type
[2] = molecular target: GDP-bound HRAS wild-type protein (Homo sapiens, UniProt P01112); test: Binding to HRAS by surface plasmon resonance (SPR), Single Cycle Kinetics; details: SPR; for HRAS/KRAS (ratio of KD value with respect to HRAS to KD value with respect to KRAS): GDP-bound HRAS wild-type vs GDP-bound KRAS wild-type
GDP-bound HRAS wild-type protein, sequence (P01112 whole entry): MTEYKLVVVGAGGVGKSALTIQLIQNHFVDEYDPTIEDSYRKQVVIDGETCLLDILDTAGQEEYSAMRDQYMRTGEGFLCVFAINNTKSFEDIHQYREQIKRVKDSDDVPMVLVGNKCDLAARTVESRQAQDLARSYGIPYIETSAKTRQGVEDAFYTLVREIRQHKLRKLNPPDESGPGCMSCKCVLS

GDP-bound NRAS wild-type protein, sequence (P01111 whole entry): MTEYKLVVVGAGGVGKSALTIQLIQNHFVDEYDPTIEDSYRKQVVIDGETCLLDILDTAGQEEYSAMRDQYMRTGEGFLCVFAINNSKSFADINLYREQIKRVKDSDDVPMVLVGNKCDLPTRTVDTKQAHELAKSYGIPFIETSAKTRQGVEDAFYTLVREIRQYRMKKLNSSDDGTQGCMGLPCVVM

Compound: CCC[C@H]1C(=O)N[C@@H]([C@@H](C)CC)C(=O)N2CCC[C@H]2C(=O)N(C)[C@H]2C/C=C\CCN(C2=O)[C@@H](Cc2ccc(C(F)(F)F)cc2)C(=O)N(C)CC(=O)N[C@@H](CCc2ccc(C(F)(F)F)c(OC)c2)C(=O)N2C[C@@H](C)C[C@H]2C(=O)N(C)C2(CCC2)C(=O)N(C)[C@@H](C2CCCC2)C(=O)N(C)[C@H](C(=O)N(C)C)CC(=O)N1C [PP2362]
- NRAS/KRAS (ratio of KD value with respect to NRAS to KD value with respect to KRAS) [1]: A (a compound having 10 or more and less than 20 is denoted as A)
- HRAS/KRAS (ratio of KD value with respect to HRAS to KD value with respect to KRAS) [2]: A (a compound having 10 or more and less than 20 is denoted as A)

Compound: CCO[C@@H]1C[C@H]2C(=O)NC3(CCC3)C(=O)N(C)[C@@H](C3CCCC3)C(=O)N(C)[C@H](C(=O)N3CCOCC3)CC(=O)N(C)[C@@H](CC(C)C)C(=O)N[C@@H]([C@@H](C)CC)C(=O)N(C)CC(=O)N(C)[C@H]3CCCCCN(C3=O)[C@@H](Cc3ccc(F)cc3OC)C(=O)N(C)CC(=O)N[C@@H](CCc3cc(F)c(C(F)(F)F)c(F)c3)C(=O)N2C1 [PP0924]
- NRAS/KRAS (ratio of KD value with respect to NRAS to KD value with respect to KRAS) ([1]; KD ratio): B (a compound having 3 or more and less than 10 is denoted as B)
- HRAS/KRAS (ratio of KD value with respect to HRAS to KD value with respect to KRAS) ([2]; KD ratio): B (a compound having 3 or more and less than 10 is denoted as B)

Compound: CCC[C@H]1C(=O)N[C@@H](C2CCCCC2)C(=O)N(C)CC(=O)N(C)[C@H]2C/C=C\CCN(C2=O)[C@@H](Cc2ccc(C)cc2)C(=O)N(C)CC(=O)N[C@@H](CCc2ccc(C(F)(F)F)c(Cl)c2)C(=O)N2C[C@H](OCC)C[C@H]2C(=O)NC2(CC(C)(C)C2)C(=O)N(C)[C@@H](C2CCCC2)C(=O)N(C)[C@H](C(=O)N(C)C)CC(=O)N1C [PP2998]
- NRAS/KRAS (ratio of KD value with respect to GDP-bound NRAS wild-type protein to KD value with respect to KRAS) ([1]; KD ratio NRAS/KRAS, GDP-bound wild-type proteins): A (a compound having 10 or more and less than 20 is denoted as A)
- HRAS/KRAS (ratio of KD value with respect to GDP-bound HRAS wild-type protein to KD value with respect to KRAS) ([2]; KD ratio HRAS/KRAS, GDP-bound wild-type proteins): AA (a compound having 20 or more is denoted as AA)

Compound: CCOC1CC2C(=O)NC3(CCC3)C(=O)N(C)C(C(C)CC)C(=O)N(C)[C@H](C(=O)N3CCOCC3)CC(=O)N(C)[C@@H](CC(C)C)C(=O)N[C@@H]([C@@H](C)CC)C(=O)N(C)CC(=O)N(C)[C@H]3CCCCN(C3=O)[C@@H](Cc3ccc(C(F)(F)F)cc3)C(=O)N(C)CC(=O)N[C@@H](CCc3cc(F)c(C(F)(F)F)c(F)c3)C(=O)N2C1 (stereo partly shown) [PP0812]
- NRAS/KRAS (ratio of KD value with respect to NRAS to KD value with respect to KRAS) ([1]; KD ratio): B (a compound having 3 or more and less than 10 is denoted as B)
- HRAS/KRAS (ratio of KD value with respect to HRAS to KD value with respect to KRAS) ([2]; KD ratio): B (a compound having 3 or more and less than 10 is denoted as B)

Compound: CCCN1C(=O)[C@@H]2CCN2C(=O)[C@H](C)N(C)C(=O)[C@H]([C@@H](C)CC)NC(=O)[C@H](CC(C)C)N(C)C(=O)C[C@@H](C(=O)N2CCOCC2)N(C)C(=O)[C@H](C2CCCC2)N(C)C(=O)C2(CCCC2)NC(=O)[C@@H]2C[C@@H](O)CN2C(=O)[C@H](CCc2ccc(C(F)(F)F)c(Cl)c2)NC(=O)CN(C)C(=O)[C@@H]1Cc1ccc(C(F)(F)F)cc1 [PP0239]
- NRAS/KRAS (ratio of KD for GDP-bound NRAS wild-type to KD for KRAS) ([1]; KD ratio NRAS/KRAS): C (A compound having a KD ratio of 0.1 or more and less than 3 is denoted as C)
- HRAS/KRAS (ratio of KD for GDP-bound HRAS wild-type to KD for KRAS) ([2]; KD ratio HRAS/KRAS): B (a compound having 3 or more and less than 10 is denoted as B)
